This passage reports GI50 and TGI results from PubChem BioAssay (NCI).

SMILES strings stand for the structures. Converted amounts (≈) assume the structure as drawn.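 Exposure lasted 48 hours, with cells grown in 96-well plates and compounds tested at five concentrations. Abbreviation: GI50, concentration required for 50% inhibition of growth. TGI marks complete inhibition of growth.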

Test systems include NCI-H23 lung; SF-295 CNS; OVCAR-5 ovarian; A549 NSCLC; HCT-15 colon; SNB-19 CNS; COLO 205 colon; SF-539 CNS; NCI-H460 lung; NCI-H226 lung; OVCAR-8 ovarian; MOLT-4 leukemia; OVCAR-4 ovarian.
Assay in all cases: growth of human tumour cells (NCI), 48 h

Take `Cc1nc2nc(C)n(CCN3CCOCC3)c(=O)c2c(-c2cccc([N+](=O)[O-])c2)c1C(=O)CCCCCCCCCCN1CCC(c2ccccc2)(c2ccccc2)CC1`: the GI50 in the assay on NCI-H23 lung is 1.81 µg/mL (≈ 2.22 µM); with SF-295 CNS, 0.78 µg/mL (≈ 0.96 µM); with OVCAR-5 ovarian it was 2.07 µg/mL (≈ 2.55 µM); in the assay with A549 NSCLC it was 2.38 µg/mL (≈ 2.93 µM); in the assay on HCT-15 colon, 1.32 µg/mL (≈ 1.62 µM); in the assay with SNB-19 CNS, 2.28 µg/mL (≈ 2.8 µM). The TGI was 3.71 µg/mL in the assay on NCI-H23 lung; 2.65 µg/mL in the assay on SF-295 CNS; 4.03 µg/mL in the assay on OVCAR-5 ovarian; 5.24 µg/mL in the assay on A549 NSCLC; 3.17 µg/mL in the assay on HCT-15 colon; 4.3 µg/mL in the assay on SNB-19 CNS.

Consider `Cc1cc(=O)oc2c1cc1ccc3cccc4ccc2c1c34`, for which the TGI in the assay on NCI-H23 lung, in the assay with COLO 205 colon, with SF-539 CNS, in the assay with NCI-H460 lung, with NCI-H226 lung and in the assay with SF-295 CNS was more than 100 µM each time. Also, the TGI in the assay on OVCAR-8 ovarian, with HCT-15 colon, in the assay on SNB-19 CNS and in the assay with MOLT-4 leukemia was more than 100 µM in each case.

In the case of `ICC1CCCO1` (stereo not drawn), the TGI with NCI-H23 lung, in the assay on COLO 205 colon, in the assay on SF-539 CNS, in the assay on NCI-H460 lung, in the assay on NCI-H226 lung and with SF-295 CNS was more than 100 µM throughout. The TGI in the assay on OVCAR-8 ovarian, in the assay on OVCAR-5 ovarian, in the assay on A549 NSCLC, with HCT-15 colon, with SNB-19 CNS and in the assay with MOLT-4 leukemia was more than 100 µM throughout. This compound also returned a TGI in the assay on OVCAR-4 ovarian of more than 100 µM.

`Cc1cc(O)c2c(c1)C(=O)c1c(c(O)cc(O)c1-c1c(O)cc(O)c3c1C(=O)c1cc(C)cc(O)c1C3=O)C2=O`: the TGI is 50.8 µM with NCI-H23 lung; more than 71.7 µM with COLO 205 colon; 36.6 µM in the assay with SF-539 CNS; 55.3 µM in the assay with NCI-H460 lung; 50 µM in the assay with NCI-H226 lung; 38.3 µM in the assay with SF-295 CNS. Besides, the TGI in the assay with OVCAR-8 ovarian came to 47 µM; in the assay on OVCAR-5 ovarian, 85 µM; with A549 NSCLC it was 65.9 µM; with HCT-15 colon, 38 µM; in the assay on SNB-19 CNS, 12.4 µM; in the assay with MOLT-4 leukemia, 50.8 µM. Besides, the TGI in the assay on OVCAR-4 ovarian stood at 26.9 µM.

`CC1(C)OCC(CO)(CO)CO1`: the TGI in the assay on NCI-H23 lung, in the assay on COLO 205 colon, with NCI-H460 lung, in the assay with NCI-H226 lung, in the assay with SF-295 CNS and in the assay with OVCAR-8 ovarian was more than 100 µM throughout. Moreover, the TGI in the assay with A549 NSCLC, in the assay with HCT-15 colon, with SNB-19 CNS, in the assay with MOLT-4 leukemia and with OVCAR-4 ovarian was more than 100 µM each time.

Regarding `CCOP(=O)(C/C=C/Cn1ncc(=O)[nH]c1=O)OCC`, the TGI in the assay with COLO 205 colon, with SF-539 CNS, in the assay on NCI-H460 lung, in the assay with NCI-H226 lung, in the assay with OVCAR-8 ovarian and in the assay on OVCAR-5 ovarian was more than 100 µM throughout. In addition, the TGI in the assay on A549 NSCLC, in the assay with HCT-15 colon, in the assay with SNB-19 CNS, in the assay on MOLT-4 leukemia and in the assay on OVCAR-4 ovarian was more than 100 µM in each case.

On to `c1ccc(C2=NN2c2ccccc2)cc1`, for which the TGI with NCI-H23 lung, with COLO 205 colon, in the assay on SF-539 CNS, in the assay on NCI-H460 lung, with NCI-H226 lung and with SF-295 CNS was more than 100 µM in each case. Moreover, the TGI in the assay with OVCAR-8 ovarian, in the assay on OVCAR-5 ovarian, in the assay on A549 NSCLC, in the assay on HCT-15 colon, in the assay on SNB-19 CNS and in the assay with MOLT-4 leukemia was more than 100 µM each time. Also, the TGI with OVCAR-4 ovarian was more than 100 µM.

For the compound `O=C(O)CCC(NC(=O)c1ccc(Nc2cnc3cc(C(F)(F)F)ccc3n2)cc1)C(=O)O` (stereo not drawn), the TGI in the assay with NCI-H23 lung, in the assay on COLO 205 colon, with SF-539 CNS, in the assay on NCI-H460 lung, in the assay with NCI-H226 lung and in the assay with SF-295 CNS was more than 100 µM in each case. Further, the TGI in the assay with OVCAR-8 ovarian, in the assay with OVCAR-5 ovarian, in the assay with A549 NSCLC, with HCT-15 colon, in the assay on SNB-19 CNS and in the assay with MOLT-4 leukemia was more than 100 µM throughout. The compound further yielded a TGI in the assay with OVCAR-4 ovarian of more than 100 µM.

Regarding `CN1CCC2(c3ccccc3)CC(=O)/C(=C/c3ccc(Cl)c(Cl)c3)C1C2` (stereo not drawn), the TGI came to 8.45 µM in the assay with NCI-H23 lung; 4.2 µM in the assay on COLO 205 colon; 4.35 µM in the assay on SF-539 CNS; 5.94 µM in the assay on NCI-H460 lung; 4.69 µM in the assay with NCI-H226 lung; 6.52 µM in the assay on SF-295 CNS. For the same compound, the TGI amounted to 4.64 µM in the assay with OVCAR-8 ovarian; 6.37 µM in the assay with OVCAR-5 ovarian; 10.9 µM with A549 NSCLC; 4.59 µM in the assay with HCT-15 colon; 5.32 µM in the assay with SNB-19 CNS; 7.81 µM with MOLT-4 leukemia. The compound also had a TGI in the assay on OVCAR-4 ovarian of 7.21 µM.

As to `C=C1CC(OC)(C(OC)C(=O)N[C@H]2OCO[C@H]3C2O[C@H](C[C@@H](COC)OC)C(C)(C)C3OC)O[C@H](C)[C@@H]1C` (stereo partly drawn), the TGI in the assay on NCI-H23 lung came to 6.68 µM; in the assay with COLO 205 colon, 4.72 µM; in the assay with SF-539 CNS, 2.85 µM; in the assay with NCI-H460 lung it was 5.96 µM; in the assay with NCI-H226 lung, 7.73 µM; with SF-295 CNS, 3.28 µM. Further, the TGI amounted to 6.89 µM in the assay with OVCAR-8 ovarian; 4 µM in the assay on OVCAR-5 ovarian; 5.24 µM in the assay with A549 NSCLC; 8.25 µM in the assay with HCT-15 colon; 3.22 µM in the assay on SNB-19 CNS; 1.88 µM in the assay on MOLT-4 leukemia. Besides, the TGI in the assay on OVCAR-4 ovarian worked out at 4.25 µM.

As for `O=Cc1cn(CCCCCCCCn2cc(C=O)c3ccccc32)c2ccccc12`, the TGI in the assay with NCI-H23 lung, in the assay with COLO 205 colon, in the assay on SF-539 CNS, with NCI-H460 lung, with NCI-H226 lung and in the assay with SF-295 CNS was more than 10 µM throughout. Also, the TGI with OVCAR-8 ovarian, with OVCAR-5 ovarian, with A549 NSCLC, in the assay on HCT-15 colon, in the assay on SNB-19 CNS and in the assay with MOLT-4 leukemia was more than 10 µM throughout. In addition, the TGI with OVCAR-4 ovarian was more than 10 µM.

`O=C(NN1C(=O)CS(=O)(=O)C1c1ccc(Cl)c(Cl)c1)c1ccncc1` (stereo not drawn): the TGI with NCI-H23 lung, in the assay with COLO 205 colon, in the assay on SF-539 CNS, in the assay with NCI-H460 lung, in the assay on NCI-H226 lung and in the assay on SF-295 CNS was more than 100 µM throughout. The TGI in the assay with OVCAR-8 ovarian is more than 100 µM; with OVCAR-5 ovarian, more than 100 µM; in the assay on A549 NSCLC, more than 100 µM; with HCT-15 colon it was more than 100 µM; in the assay on SNB-19 CNS it was more than 100 µM; in the assay with MOLT-4 leukemia, more than 71.8 µM. This compound displayed a TGI with OVCAR-4 ovarian of more than 100 µM.

Turning to `Cc1[nH]c(C)c(CN(C)C)c1CN(C)C`, the TGI in the assay with NCI-H23 lung, in the assay on COLO 205 colon, in the assay on SF-539 CNS, in the assay with NCI-H460 lung, with NCI-H226 lung and with SF-295 CNS was more than 100 µM each time. In addition, the TGI in the assay with OVCAR-8 ovarian, with OVCAR-5 ovarian, in the assay on A549 NSCLC, in the assay on HCT-15 colon, with SNB-19 CNS and in the assay on OVCAR-4 ovarian was more than 100 µM each time.

In the case of `O=C=C=P(c1ccccc1)(c1ccccc1)c1ccccc1`, the TGI in the assay with NCI-H23 lung is more than 100 µM; in the assay with COLO 205 colon it was 75.7 µM; in the assay with SF-539 CNS, more than 100 µM; in the assay on NCI-H460 lung it was more than 100 µM; in the assay with NCI-H226 lung it was more than 100 µM; in the assay with SF-295 CNS, more than 100 µM. Besides, the TGI in the assay on OVCAR-8 ovarian is more than 100 µM; in the assay with OVCAR-5 ovarian, 92.8 µM; in the assay on A549 NSCLC, more than 100 µM; in the assay on HCT-15 colon, more than 100 µM; with SNB-19 CNS, more than 100 µM; with MOLT-4 leukemia, more than 100 µM. This compound showed a TGI in the assay with OVCAR-4 ovarian of more than 100 µM.
